Laboratory results taken from patent US7427416B2, “Methods of treating conditions using metal-containing materials” (Nucryst Pharmaceuticals Corp., priority 2000, dated 2008).
Values joined by “and” are separate entries in the source; they are usually repeats but may differ in a detail not shown here. Equal values may be shown once.

How the values were obtained:
[1] = system: Staphylococcus aureus; assay: aerosol of silver solutions on streaked agar plates; assay type: cell-based; parameters: key to Growth at 16 h (0−++++) / Growth at 48 h (0−++++): (0−++++); (0−++++); (0−++++); (0−++++); details: for Growth at 16 h (0−++++) / Growth at 48 h (0−++++): aerosol 53 minutes
Protocol: (§1) The solutions were in turn placed in an ultrasonic nebulizer that created small droplets containing dissolved and suspended parts of the silver solution. The output from the nebulizer was directed into a chamber made from a stainless steel frame and base. Petri dishes containing Mueller Hinton agar streaked with 4 h old cultures of Pseudomonas aeruginosa and Staphylococcus aureus, were exposed to the silver solution aerosols and the silver nitrate aerosols.
(§2) The method used for the current tests was the mechanical method in the form of an ultrasonic nebulizer. For convenience an ultrasonic humidifier was used. The liquid containing the dissolved and suspended silver from the dressing of Example 1 was placed in the water reservoir of the humidifier. When power was applied to the humidifier aerosol droplets of dissolved and suspended silver were generated and flowed from the output nozzle.
(§3) A test chamber was constructed using a stainless steel frame with a transparent plastic covering. The frame was placed on a stainless steel base plate. The output nozzle from the humidifier was modified so that the aerosol could be directed into the chamber at a height of approximately 30 cm from the base. The plates and other test samples were placed on the stainless steel plate and exposed to the aerosol for a prescribed length of time.
(§4) Petri dishes, containing Mueller Hinton agar, were streaked with 4 h old cultures of Pseudomonas aeruginosa or Staphylococcus aureus. The plates were then weighed and their exposed outer surfaces were coated with Parafilm to prevent condensation from occurring on these surfaces. These plates were placed in the aerosol chamber uncovered. The ultrasonic nebulizer was then started and run for 53 minutes. The plates were then removed from the chamber, the plastic was removed and the dishes re-weighed so that the amount of moisture loss/gain could be determined.
(§5) The plates were then placed in a 35° C. incubator for 16 h. After incubation the pattern and amount of growth was assessed on the plates for both organisms.
(§6) Three of the six plates made for each organism were tested to determine if the antimicrobial effect was cidal or static in nature. This was accomplished by rinsing or placing a piece of the clear section of agar in the Petri dish plates into Tryptic soy broth in a test tube and incubating for 4 h or 16 h. If the medium turned turbid in 4 h it would indicate that the antimicrobial affect was bacteriostatic in nature. If the organisms took more than 16 h to grow, as indicated by turbidity, it was considered an indication that both static and cidal effects occurred. If no growth occurred the effect was bactericidal.
as §1, with “the solution of nanocrystalline noble metal-containing material.” for “the silver solution.”, “Pseudomonas aerugiona” for “Pseudomonas aeruginosa”, “Staphylococcus aureus” for “Staphylococcus aureus,”, “to nanocrystalline noble metal” for “to the silver solution”
(§7) The method used to create an aerosol for these tests was the mechanical method in the form of an ultrasonic nebulizer. For convenience, an ultrasonic humidifier was used. The liquid containing the dissolved and suspended antimicrobial metal-containing material with atomic disorder was placed in the water reservoir of the humidifier. When power was applied to the humidifier, aerosol droplets of dissolved and suspended antimicrobial metal-containing material with atomic disorder were generated and flowed from the output nozzle.
(§8) A test chamber was constructed using a stainless steel frame with a transparent plastic covering. The frame was placed on a stainless steel plate.

[2] = system: Pseudomonas aeruginosa; assay: as above; assay type: cell-based; parameters: key to Growth at 16 h (0−++++) / Growth at 48 h (0−++++): (0−++++); (0−++++); (0−++++); (0−++++); details: for Growth at 16 h (0−++++) / Growth at 48 h (0−++++): aerosol 53 minutes; for Viable 4 h / Viable 16 h: regrowth in Tryptic soy broth
Protocol: as §1, §2, §3, §4, §5, §6
as §1, with “the solution of nanocrystalline noble metal-containing material.” for “the silver solution.”, “Pseudomonas aerugiona” for “Pseudomonas aeruginosa”, “Staphylococcus aureus” for “Staphylococcus aureus,”, “to nanocrystalline noble metal” for “to the silver solution”
as §7, §8

[3] = system: Pseudomonas aeruginosa strain 5588 infected lungs; assay: nebulized forms of silver in rats, gross lung score; assay type: in vivo, rat; details: after 24 h, nebulized solutions (400 ppm; colloidal silver 20 ppm)
Protocol: A solution was prepared by sparging CO2 through 1000 ml of reverse osmosis water using commercial CO2 Soda Syphon Charger. This process results in the pH of the water dropping to about 4. At this point, approximately 333 ml of the carbonated water was decanted into a plastic bottle and 333 square inches of nanocrystalline silver-coated net was added to the water. The nanocrystalline silver-coated net and water were placed in 37° C. shaker incubator and shaken at 180 RPM for 30 minutes to elevate the pH to approximately 5.8. The solution was then transferred to a beaker and stirred vigorously for 2 minutes to raise the pH to approximately at 7.3.
A colloidal silver solution (20 ppm) in was obtained from a commercial source.
The dissolution solutions were transferred to commercial nebulizers which were connected to a Medical air cylinder with a flow rate of approx. 20 L/min. The outflows of the nebulizers were connected to an animal chamber housing the rats to be dosed. All rats (40 randomly assigned animals) received the dosing. The rats received two —½ hour aerosol administrations of the test solutions on the day of infection. […]
All rats of each group of animals were sacrificed after 24 h. […] Lungs were grossly scored (absent=0, mild=1, moderate=2, and severe=3) based on the degree of involvement of consolidation, hemorrhage, edema and necrosis based upon gross observation.

[4] = system: Pseudomonas infected lungs; assay: rat lung infection, histopathology of lung samples; assay type: in vivo; details: for Consol Score / Inflam Score: 0=normal to 4 very severe
Protocol: A solution form nanocrystalline silver coated dressings (AgHDPE) from Example 1 was prepared by sparging CO2 through 1000 ml of reverse osmosis water using commercial CO2 Soda Syphon Charger. […] At this point, approximately 333 ml of the carbonated water was decanted into a plastic bottle and 333 square inches of nanocrystalline silver-coated net was added to the water. The nanocrystalline silver-coated net and water were placed in 37° C. shaker incubator and shaken at 180 RPM for 30 minutes to elevate the pH to approximately 5.8. The solution was then transferred to a beaker and stirred vigorously for 2 minutes to raise the pH to approximately at 7.3. The dissolution solution was transferred to a commercial nebulizer which was connected to a medical air cylinder with a flow rate of approx. 20 L/min. The outflow of the nebulizer was connected to a animal chamber housing the rats to be dosed. Only the “test” rats (12 randomly assigned animals) received the dosing. The rats received two —½ hour aerosol administrations of the test solution on the day of infection. Thereafter, the test rats were dosed 3 times per day for an additional one and a half days.
The bacteria used for infection of these animals were Pseudomonas aeruginosa strain 5588. The dose was previously titrated to ascertain that a dose of up to 10^9 CFU was not lethal for the animals. The bacteria were grown overnight in Tryptic soy broth, washed once in sterile PBS and resuspend in sterile PBS. The final concentration of the inoculum was 4×10^9 CFU/ml.
The rats were anesthetized by inhalation of 2% halothane. A 400 microliter volume of bacterial suspension was intratracheally administered in the bronchi of each rat. This was performed non-surgically on intubated animals.
Histopathology was scored (0-4) based upon the degree of consolidation and inflammation (neutrophil infiltration). The entire right middle lobes of all rats were collected for histopathology. As whole lobes were selected there was no bias toward any sample. All samples were fixed in neutral buffered formalin at the time the lung was removed from the thorax. It was fixed overnight, dehydrated and embedded in was. Sections were obtained which were hydrated and stained with haematoxylin and eosin.
All sections were examined by a veterinary pathologist who was blinded to the treatment groups, until after the samples were scored and comments were provided. (0=normal, 1=slight, 2 moderate, 3 severe, 4 very severe).

[5] = system: Pseudomonas infected lungs; assay: rat lung infection, gross lung score; assay type: in vivo; details: individual animals, absent=0, mild=1, moderate=2, severe=3
Protocol: A solution form nanocrystalline silver coated dressings (AgHDPE) from Example 1 was prepared by sparging CO2 through 1000 ml of reverse osmosis water using commercial CO2 Soda Syphon Charger. […] At this point, approximately 333 ml of the carbonated water was decanted into a plastic bottle and 333 square inches of nanocrystalline silver-coated net was added to the water. The nanocrystalline silver-coated net and water were placed in 37° C. shaker incubator and shaken at 180 RPM for 30 minutes to elevate the pH to approximately 5.8. The solution was then transferred to a beaker and stirred vigorously for 2 minutes to raise the pH to approximately at 7.3. The dissolution solution was transferred to a commercial nebulizer which was connected to a medical air cylinder with a flow rate of approx. 20 L/min. The outflow of the nebulizer was connected to a animal chamber housing the rats to be dosed. Only the “test” rats (12 randomly assigned animals) received the dosing. The rats received two —½ hour aerosol administrations of the test solution on the day of infection. […]
On each day, six rats of each group of animals were sacrificed. […] Lungs were grossly scored (absent=0, mild=1, moderate=2, and severe=3) based on the degree and involvement of consolidation, hemorrhage, edema and necrosis based upon gross observation.

[6] = Solutions 1 and 3: Ag 85 (dressing) / 99 (AgNO3) μg/ml
[7] = Solutions 1 and 3: Ag 85 / 99 μg/ml
[8] = Solutions 1 and 3: Ag 85 / 99 μg/ml, regrowth in Tryptic soy broth
[9] = Solutions 2 and 4: Ag 370 (dressing) / 300 (AgNO3) μg/ml
[10] = Solutions 2 and 4: Ag 370 / 300 μg/ml

SMILES: O=[N+]([O-])[O-].[Ag+] [AgNO3, silver nitrate]
- Growth at 16 h (0−++++) [1, 6]: 0
- Growth at 16 h (0−++++) ([1]; Solutions 1 and 3: Ag 85 (dressing) / 99 (AgNO3) μg/ml, listed as AgNo3): ++++
- Growth at 48 h (0−++++) [1, 7]: ++++
- Viable 4 h [1, 8]: No
- Viable 16 h [1, 8]: Yes
- Viable 4 h ([1]; Solutions 1 and 3: Ag 85 / 99 μg/ml, regrowth in Tryptic soy broth, listed as AgNo3): Yes
- Growth at 16 h (0−++++) [1, 9]: 0
- Growth at 48 h (0−++++) [1, 10]: +++
- Viable 4 h ([1]; Solutions 2 and 4: Ag 370 / 300 μg/ml, regrowth in Tryptic soy broth): No
- Growth at 16 h (0−++++) [2, 6]: 0
- Growth at 48 h (0−++++) [2, 7]: 0
- Viable 4 h [2, 7]: No
- Viable 16 h [2, 7]: No
- Viable 16 h ([2]; Solutions 1 and 3: Ag 85 / 99 μg/ml, listed as AgNo3): Yes
- Growth at 16 h (0−++++) [2, 9]: 0
- Growth at 48 h (0−++++) [2, 10]: 0
- Viable 4 h [2, 10]: No
- Viable 16 h [2, 10]: No
- gross score of lungs [3]: moderately to severely inflamed

SMILES: NC[C@H]1O[C@H](O[C@H]2[C@H](O)[C@@H](O[C@H]3O[C@H](CO)[C@@H](O)[C@H](N)[C@H]3O)[C@H](N)C[C@@H]2N)[C@H](N)C[C@@H]1O [Tobramycin]
- Comments (histopathology) ([4]; Time 24): Severe infiltration of PMNs into interstitial spaces.
- Consol Score ([4]; Time 24): 3
- Inflam Score ([4]; Time 24): 3
- Comments (histopathology) ([4]; Time 48): Severe infiltration of PMNs into interstitial spaces.
- Involvement of sample ([4]; Time 48): in affected areas. Involvement of 70% of sample.
- Consol Score ([4]; Time 48): 3
- Inflam Score ([4]; Time 48): 3
- gross lung score ([5]; 24 h): 2 (3×) and 3 (2×) and 1
- gross lung score ([5]; 48 h): 1 (4×) and 2 and Dead
